Experimental data as given in patent US12514797B2, “Cosmetic and dermatological compositions” (Northeastern University, priority 2017, dated 2026).

Legend:
[1] = Complex refractive index determination; type: physicochemical
From the text: (§1) Given its propensity to form granules in natural systems (FIG. 3, left) and its impressive UV-absorptive properties in vitro (FIG. 12, see Table 2 below), Xa was encapsulated within biodegradable particles designed to improve its durability and use as a topical UV-filter. The complex refractive index (RI) of Xa was experimentally determined as 1.92+0.014i. This uniquely high RI is important, especially when considering the design criteria of the particle based UV-filters. For instance, when assembled into nano- and micro-particles, Xa will scatter more light than it absorbs at diameters >200 nm, and this difference is maximized at sizes >[…] (FIG. 13). Because light scattering is an important feature for heat dissipation and reflection for coatings, it can be preferable to design particles with diameters ranging from 1-10 μm.

[2] = UV absorbance in vitro, SPF calculated using the Mansur equation, comparison to known UV-filters; type: physicochemical
Procedure: FIG. 12 provides absorbance curves (see top graph) and corresponding comparator values (see table) of Xa to known UV-filters, avo- and oxy-benzone. […] X−1 represents synthetic Xa; X−2 represents Xa extracted from squid at 0.10 mM. SPF was calculated using the Mansur equation and critical wavelength was determined as the wavelength at which 90% of the absorbance curve resides.
Xa is the simplest and most common ommochrome and is formed (along with the reduced dihydro-xanthommatin and ommatin subclasses) via the condensation of two hydroxykynurenine residues in the kynurenine pathway of tryptophan metabolism. Once synthesized, Xa is stabilized within granules (diameter 530 nm) that are resistant to photodegradation. An added predicted functionality, although largely unexplored in vitro and in vivo, is that Xa behaves as a free-radical scavenger. Together, with the data presented in FIG. 12 showing that Xa absorbs UV radiation ˜2× higher than current chemical filters at the same concentrations, it is expected that Xa and Xa-based materials can function as UV-filters that can not only protect against solar irradiation but can also be used in preventative skin care as free-radical scavengers (while maintaining biocompatibility).
as §1

[3] = Hydroxyl radical antioxidant capacity (HORAC) activity assay; type: biochemical; details: compared to commercially available antioxidant standard gallic acid
From the text: FIG. 14 illustrates the hydroxyl radical antioxidant capacity (HORAC) activity assay activity of Xa. The HORAC assay was used to evaluate the application of Xa as a natural antioxidant. Xa consumes hydroxyl radicals produced by the activation of the fenton reagent preventing the degradation of the fluorescein probe.
Oxygen derived species such as superoxide radical, hydrogen peroxide, singlet oxygen and hydroxyl radical are well known to be cytotoxic and have been implicated in the onset of a wide array of human diseases. These “compounds” are often referred to as reactive oxygen species (ROS). ROS normally exist in all aerobic cells in balance with biochemical antioxidants; however, this critical equilibrium can be disrupted due to excess ROS or antioxidant depletion and can result in oxidative stress. Antioxidants are used in cosmetics, pharmaceuticals, food and on the skin directly minimize the undesirable reactions resulting from oxidation caused by ROS. Commonly used antioxidants typically contain a combination of phenol, benzene and alkene functional groups. These key features work to inhibit the propagation of ROS through resonance stabilization of free radicals. […] The ability of particles and pigments (free and encapsulated) to […] ROS are measured using the colorimetric hydroxyl radical antioxidant capacity (HORAC) assay (FIG. 14). […]

[4] = Electrochromic device (Xa in PEDOT:PSS) redox-dependent color switch, CIE 1931 chromaticity and transmittance; type: physicochemical; details: darkest yellow (O3) to red (R3) films, 555 nm
From the text: Even though its exact mechanism for electron transfer remains unknown, phenoxazone-based materials are believed to undergo a reversible reduction to dihydroxanthommatin, gaining two electrons and two protons during its redox-dependent color change. These principles are used to show how the pigment stabilized in a polymer (PEDOT-PSS) matrix is capable of switching color in response to different applied voltages. When a double potential step from +1.5 V to −1.5 V vs ground was applied to the device, a redox-dependent color switch was observed (FIG. 11). The current required to switch from one colored state to another was plotted as a function of time upon application of a square-wave potential (FIG. 10). […] In each case, the switching time for each step was calculated as the time required to reach 95% of the maximum current.
The spectral tunability of these materials was also investigated by varying the ratio between PEDOT:PSS and pigment (FIG. 11). Different concentrations of xanthommatin (from 0.04 mg/ml to 0.16 mg/ml) were used while the amount of PEDOT:PSS remained constant. The color of each film activated at the different redox states was measured using the International Commission of Illumination (CIE) 1931 xy-chromaticity diagram. […]
Because the human eye is most sensitive at 555 nm, all transmittance values were calculated at this wavelength without any background correction.

[5] = Spectrophotometric pH titration, experimental determination of pKa; type: physicochemical; details: water titrated with 0.05 M NaOH, extrapolated from absorbance intensity at 430 and 360 nm as a function of pH
Procedure: The two observed pKas are indicated by the dashed lines at 5.50 and 8.40.
The purified xanthommatin (˜5 mg) was suspended in water (5.00 mL) and titrated to a starting pH of 2.08. The solution was then titrated with 0.05 M NaOH until the pH reached 10.37. During each point in the titration, the solution pH and absorbance was determined. pH levels were measured using a Fisher Scientific Accumet AP 110 pH meter (Fisher Scientific, Waltham, MA).
The pH-dependent color change of a […] solution of xanthommatin was monitored over a pH range of 1.90-10.30 using spectrophotometry. Three distinct patterns were associated with the increasing pH (see FIG. 8). At pH<3.00, the pigment was pale-yellow with a λmax˜430 nm. […] To determine whether the observed intensity in color was reversible at the lower pH values, the pH of xanthommatin was next cycled between acidic (2.00-3.00) and neutral (pH 6.00-8.00) conditions six times, and the absorbance intensity at 430 nm was followed. […]
If the presence or absence of protons were indeed influencing the resultant visible color, then individual acid dissociation constants (Ka) could be experimentally extrapolated and used to follow compositional changes in the biochrome as a function of pH. To test this, it was determined how absorbance intensities varied as a function of pH at both 430 and 360 nm (see FIG. 9). […]

[6] = pH-dependent stability (MSMS analysis of pigment hydrolysis); type: physicochemical; details: pH values approached and exceeded 10.00, mass addition of water

## NC(CC(=O)c1cccc2oc3cc(=O)c4[nH]c(C(=O)O)cc(=O)c4c-3nc12)C(=O)O (stereo not shown) [Xa, xanthommatin]
[1]
  complex refractive index (RI): 1.92+0.014i
[2]; 0.062 mM
  SPF in vitro: 3
[2]; 0.125 mM
  SPF in vitro: 14
[2]; 0.250 mM
  SPF in vitro: 38
[2]; same concentrations, FIG. 12 comparators avo- and oxy-benzone
  UV radiation absorption relative to current chemical filters: ~2 ×
[3]
  HORAC activity: enhanced activity in comparison to commercially available standard gallic acid
[3]; listed as Xanthommatin
  HORAC activity: enhanced activity when compared to commercially available antioxidant gallic acid
[4]
  optical contrast (ΔT %): 25.4%
[5]
  pKa: 5.5
[6]
  pigment hydrolysis: pigment hydrolysis occurred
